Article PMC11912224, “A general approach for activity-based protein profiling of oxidoreductases with redox-differentiated diarylhalonium warheads” (Chemical Science, 2025)

Tests used:
[1] = target: T1, CYP27A1 (sterol-26-hydroxylase) (Mus musculus, UniProt Q9DBG1); test: covalent labelling, streptavidin enrichment, LC-MS/MS; details: 30 uM probe, 1 h, mouse liver pieces
T1 construct: native, in intact mouse liver pieces
T1 sequence (Q9DBG1 33-533): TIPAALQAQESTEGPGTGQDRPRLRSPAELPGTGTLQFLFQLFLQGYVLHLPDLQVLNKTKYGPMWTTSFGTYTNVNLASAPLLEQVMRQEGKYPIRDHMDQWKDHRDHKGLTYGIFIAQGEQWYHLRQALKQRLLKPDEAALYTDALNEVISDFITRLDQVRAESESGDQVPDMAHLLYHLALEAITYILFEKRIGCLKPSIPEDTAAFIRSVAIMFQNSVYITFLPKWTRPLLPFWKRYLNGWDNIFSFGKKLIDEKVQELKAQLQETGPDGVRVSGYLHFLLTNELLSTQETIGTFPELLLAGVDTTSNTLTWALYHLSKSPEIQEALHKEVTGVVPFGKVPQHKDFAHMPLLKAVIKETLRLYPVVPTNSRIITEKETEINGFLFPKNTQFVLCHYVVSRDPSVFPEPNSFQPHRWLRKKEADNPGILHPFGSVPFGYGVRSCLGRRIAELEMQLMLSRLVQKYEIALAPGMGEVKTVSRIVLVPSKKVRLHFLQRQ

[2] = target: T2, retinol dehydrogenase RDH16 (Mus musculus, UniProt O54909); test: as above; details: 30 uM probe, 1 h, mouse liver pieces
T2 construct: native, in intact mouse liver pieces
T2 sequence (O54909 1-317): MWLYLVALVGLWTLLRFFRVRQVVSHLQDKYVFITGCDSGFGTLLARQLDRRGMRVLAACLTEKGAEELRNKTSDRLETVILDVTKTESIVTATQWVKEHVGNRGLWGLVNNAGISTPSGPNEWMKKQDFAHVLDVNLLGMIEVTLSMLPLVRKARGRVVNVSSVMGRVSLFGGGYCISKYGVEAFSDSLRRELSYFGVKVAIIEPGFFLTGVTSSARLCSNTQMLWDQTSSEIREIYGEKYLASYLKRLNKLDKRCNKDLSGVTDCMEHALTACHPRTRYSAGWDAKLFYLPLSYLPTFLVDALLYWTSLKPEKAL

[3] = target: T3, ALDH2 (aldehyde dehydrogenase 2, recombinant human) (Homo sapiens, UniProt P05091); test: activity-based labelling, in-gel fluorescence; format: binding; details: covalent; 30 uM probe, 1 h
T3 construct: recombinant
T3 sequence (P05091 18-517): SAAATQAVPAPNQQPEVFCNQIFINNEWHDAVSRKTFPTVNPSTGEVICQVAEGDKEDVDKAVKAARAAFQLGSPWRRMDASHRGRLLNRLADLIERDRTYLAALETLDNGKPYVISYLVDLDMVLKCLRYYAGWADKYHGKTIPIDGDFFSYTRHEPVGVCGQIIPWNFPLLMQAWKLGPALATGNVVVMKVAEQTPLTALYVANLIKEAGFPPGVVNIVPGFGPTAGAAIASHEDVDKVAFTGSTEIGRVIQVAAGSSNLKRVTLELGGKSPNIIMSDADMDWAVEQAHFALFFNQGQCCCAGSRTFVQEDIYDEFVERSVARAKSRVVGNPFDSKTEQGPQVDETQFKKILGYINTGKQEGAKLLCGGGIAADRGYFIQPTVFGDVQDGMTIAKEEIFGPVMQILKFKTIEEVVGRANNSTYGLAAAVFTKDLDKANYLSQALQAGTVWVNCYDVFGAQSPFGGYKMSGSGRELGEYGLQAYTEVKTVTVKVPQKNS

[4] = target: T4, CHO (choline oxidase) (Glutamicibacter nicotianae, UniProt A0ABQ0RMK5); test: activity-based labelling, in-gel fluorescence; format: binding; details: covalent; 30 uM probe, 1 h
T4 construct: gene ANI01nite_22550; recombinant; FAD enzyme; details not in main text
T4 sequence (A0ABQ0RMK5 1-523): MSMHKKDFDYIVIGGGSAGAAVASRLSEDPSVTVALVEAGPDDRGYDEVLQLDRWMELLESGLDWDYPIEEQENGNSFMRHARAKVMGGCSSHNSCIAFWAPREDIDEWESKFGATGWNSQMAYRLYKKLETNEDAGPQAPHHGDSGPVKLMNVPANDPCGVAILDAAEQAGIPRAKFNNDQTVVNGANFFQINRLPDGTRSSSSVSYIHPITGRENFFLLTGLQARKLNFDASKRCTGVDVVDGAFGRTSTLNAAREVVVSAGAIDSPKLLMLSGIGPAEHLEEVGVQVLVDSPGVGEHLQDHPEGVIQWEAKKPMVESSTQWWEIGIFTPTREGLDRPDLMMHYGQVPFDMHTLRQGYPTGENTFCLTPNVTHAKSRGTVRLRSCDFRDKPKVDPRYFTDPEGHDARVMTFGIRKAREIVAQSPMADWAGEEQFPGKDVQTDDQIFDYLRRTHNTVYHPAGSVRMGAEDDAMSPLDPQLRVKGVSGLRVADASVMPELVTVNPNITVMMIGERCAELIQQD

[5] = target: T5, CYP3A25 (Mus musculus, UniProt O09158); test: covalent labelling, streptavidin enrichment, LC-MS/MS; details: 30 uM probe, 1 h, mouse liver pieces
T5 construct: native, in intact mouse liver pieces
T5 sequence (O09158 1-503): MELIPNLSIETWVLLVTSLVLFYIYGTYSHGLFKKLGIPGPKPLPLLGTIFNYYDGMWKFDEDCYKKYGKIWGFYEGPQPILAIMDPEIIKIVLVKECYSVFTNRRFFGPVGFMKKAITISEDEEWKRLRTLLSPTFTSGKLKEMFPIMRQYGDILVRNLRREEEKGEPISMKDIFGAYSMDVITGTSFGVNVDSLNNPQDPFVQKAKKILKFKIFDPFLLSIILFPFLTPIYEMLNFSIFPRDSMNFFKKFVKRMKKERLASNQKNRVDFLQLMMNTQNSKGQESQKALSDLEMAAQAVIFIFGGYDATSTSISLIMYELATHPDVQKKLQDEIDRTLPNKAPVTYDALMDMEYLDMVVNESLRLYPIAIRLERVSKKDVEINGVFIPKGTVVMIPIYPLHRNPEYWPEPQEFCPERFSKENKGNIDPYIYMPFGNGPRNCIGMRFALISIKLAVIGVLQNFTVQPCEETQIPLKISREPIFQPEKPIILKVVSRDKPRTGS

## [N-]=[N+]=NCCCCCCCCCCNC(=O)c1ccc([I+]c2ccccc2)cc1 [3aa, diphenyliodonium probe 3aa]
[1]
  covalent labelling, streptavidin enrichment, LC-MS/MS: cytochrome P450 monooxygenases (CYP3A25, CYP27A1)
[2]
  covalent labelling, streptavidin enrichment, LC-MS/MS: RDH7 and RDH16 were found to be labeled by probe 3aa very well
[3]
  activity-based labelling, in-gel fluorescence: led to the labeling of several of the tested oxidoreductases
[4]
  activity-based labelling, in-gel fluorescence: led to the labeling of several of the tested oxidoreductases
[5]
  covalent labelling, streptavidin enrichment, LC-MS/MS: cytochrome P450 monooxygenases (CYP3A25, CYP27A1)
